Measurements reported in patent publication US20080070885.
Where two headings read alike, the source gives them in different places.

Row | SMILES | ring closure, yield of all isomers (from CCCCNC(=O)[C@H](C)C[C@H](O)[C@H](Cc1cccc(OCCCCC(=O)O)c1)NC(=O)[C@H](C)N, amide bond, BOP, diisopropylethylamine, DMF, 7.1 mM, 25.0 °C, 16.0 h) [%] | ring closure, yield of all isomers (from C=CCCS(=O)(=O)C[C@@H](C)C(=O)N[C@@H](Cc1cccc(CC=C)c1)[C@@H]1C[C@@H](C)C(=O)O1, rcm bond, benzylidene(1,3-dimesitylimidazolidin-2-ylidene)(tricyclohexylphosphine)ruthenium dichloride (Grubbs II), dichloromethane, 60.0 °C, 2.5 h) [%]
1 | CCCCNC(=O)[C@H](C)C[C@H](O)[C@@H]1Cc2cccc(c2)OCCCCC(=O)N[C@@H](C)C(=O)N1 (relative stereo) | 1.7 | –
2 | C[C@@H]1CS(=O)(=O)CCC=CCc2cccc(c2)C[C@@H]([C@@H]2C[C@@H](C)C(=O)O2)NC1=O | – | 74.7
